# Experimental data: patent publication US6204067A, “Methods of identifying modulators of the estrogen receptor” (Board of Trustees Operating Michigan State University, priority 1999, dated 2001)
# Legend:
# estrogen receptor = target: T1, estrogen receptor (Homo sapiens, UniProt P03372); details: higher affinity; cited from earlier work
# T1 sequence (P03372 1-595): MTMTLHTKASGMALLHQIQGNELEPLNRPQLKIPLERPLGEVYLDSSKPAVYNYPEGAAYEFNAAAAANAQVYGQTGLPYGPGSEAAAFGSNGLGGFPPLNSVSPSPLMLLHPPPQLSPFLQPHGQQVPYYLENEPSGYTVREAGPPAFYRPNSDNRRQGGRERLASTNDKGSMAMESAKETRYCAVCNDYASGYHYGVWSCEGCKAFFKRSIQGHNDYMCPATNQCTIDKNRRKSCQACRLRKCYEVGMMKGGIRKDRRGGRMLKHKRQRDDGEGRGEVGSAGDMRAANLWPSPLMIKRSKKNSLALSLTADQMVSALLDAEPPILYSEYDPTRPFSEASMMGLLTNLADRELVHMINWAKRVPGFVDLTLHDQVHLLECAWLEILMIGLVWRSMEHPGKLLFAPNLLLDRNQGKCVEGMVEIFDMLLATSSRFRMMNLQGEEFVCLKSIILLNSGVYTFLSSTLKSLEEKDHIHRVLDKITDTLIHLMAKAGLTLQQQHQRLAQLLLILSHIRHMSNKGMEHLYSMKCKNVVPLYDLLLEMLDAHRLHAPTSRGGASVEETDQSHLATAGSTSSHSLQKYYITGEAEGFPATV
# [1] = Description: The lumenal pH (pHL) of liposomes was assayed with pyranine, a fluorescent dye with a pKa~7.3 and a λex =405 nm in its acid form (-3 charge) and a λex =455 nm in its basic form (-4 charge). To prepare pyranine loaded liposomes, lipids (2 mg POPC, 1 mg cholesterol) supplied in chloroform suspension were dried in a round bottom flask under argon for 2 hours. The lipids were then resuspended in acidic or alkaline liposome buffer (300 mM KCl, 20 mM MES, 20 mM MOPS, 20 mM Tricine titrated with KOH to either pH 6.2 or pH 8.1) containing 0.5 mM pyranine. The suspension was incubated at room temperature overnight, then freeze-thawed 6×. Unilamellar liposomies were prepared by extrusion 3× through 2 stacked 100 nm Nucleopore (Corning/Costar Scientific, Acton, Mass.) polycarbonate filters in an Avestin (Vancouver, BC) extruder at 600 PSI.
# The pyranine fluorescence was calibrated as a function of pH by diluting the liposomes with pH 6.2 into a weakly buffered solution of identical pH (300 mM KCl, 1 mM MES, 1 mM MOPS, 1 mM Tricine, pH 6.2), 1 μM nigericin to allow rapid equilibration with external pH and 5 mM DPX to quench external pyranine. The ratio of the fluorescence emission at λem =510 nm was monitored with dual excitation wavelengths of λex =405 nm and λex =455 nm. Sequential aliquots of 0.1 mM glycylglycine, pH 8.4 were added to increase pH (See FIG. 5). The fluorescence was measured after each addition and the pH was measured using a pH meter. […] The cahiration curve for the liposomes of lumenal pH 8.1 was generated identically except sequential aliquots of 0.1 mM K-MES pH 5.0 were added for titration and the curve was generated between pH 8.1 and pH 6.4.
# To measure the rate of pH dissipation of liposomes with lumenal pH=6.2, the liposomes were diluted in weakly buffered solution of identical pH as described above, but with no nigericin. […] The external pH was shifted to pH 7.3 by addition of 5 mM glycylglycine pH 8.4 and the fluorescence ratio monitored. After 10 minutes, 1 μM nigericin was added to dissipate the remaining pH gradient. The pHL was calculated using the equation pH=x*log(λex =405 nm/[…])+c, were x and c are constants from the least square fit of the titration curve. To measure the rate of pH dissipation of liposomes with pHL =8.1, the identical procedure was followed except 5 mM K-MES pH 5.0 was added to shift the external pH to 6.9.
# Liposomes were loaded with pyranine, a hydrophilic, non-permeable fluorescent pH indicator to assay proton permeability. […] Two steps were taken to ensure that only pHL was measured and to permit the discrimination between dissipation of pH gradient and the lysis or dye leakage from liposomes.
# yeast vacuoles = test: Acidification of yeast vacuoles (acridine orange); type: biochemical, S. cerevisiae
# Description: Vacuoles from S. cerevisiae were prepared from the protease deficient strain BJ2407 (Yeast Genetic Stock Center, University of California, Berkeley) by sequential floatation through 12% and 8% Ficoll 400 cushion as described previously [Roberts et al., Methods Enzymol, 194:644-661 (1991)] with the single modification that 1× protease inhibitor mix and 1 mM DTT was included in each step. […] Acidification was measured using AO as described above. For acidification in chloride-free solution, gluconate or glutamate was used in vesicle buffer instead of chloride.
# ATP (1.5 mM) was added at 50 sec to initiate acidification and at 400 sec nigericin (1 μM) was added to dissipate pH gradients.
# [2] = tested on: microsomes isolated from MCF-7/ADR cells; test: In vitro acidification of MCF-7/ADR microsomes (acridine orange quenching); type: biochemical; details: for rate of dissipation of pre-existing pH gradient: added 10 minutes after ATP, tamoxifen 8 μM, bafilomycin A1 100 nM
# Description: Cells were grown in Minimal Essential. Medium supplemented with 10% Fetal Bovine Serum to confluence in 10 level Cell Factories (Nunc, Naperville, Ill.), trypsinized, washed 3× with cold PBS and lysed with a Dounce homogenizer (Pestle A) in 0.25 M sucrose, 20 mM HEPES (pH 7.4), 1 mM DTT, 1 mM EDTA, and 1× protease inhibitor mix (1 μg/ml leupeptin, 1 μ/ml pepstatin A, 1 μg/ml aprotinin, and 16 μM PMSF mixed to 100× before use). The homogenate was centrifuged twice for 10 minutes at 3000×g to remove unbroken cells and nuclei. The supernatant was layered over 20 ml of 0.5 M sucrose (20 mM HEPES (pH 7.4), 1 mM DTT, 1 mM EDTA, 1× protease inhibitor mix) and 1 ml of 2 M sucrose and centrifuged for 1 hour at 100,000 g (Beckman Ti60 Rotor). Microsomes are collected at the 0.5M and 2M interface.
# To monitor acidification of the total microsomal fraction, the quenching of AO fluorescence was monitored essentially as described previously [Barasch et al., Nature 352:70-73 (1991)]. Acidic vesicles accumulate AO to high concentrations resulting in the self quenching of the dye and a decrease of the overall fluorescence. Fluorescence was measured on an SLM Aminco-Bowman series 2 luminescence spectrometer with λex =488 nm and λem =530 nm Microsomes (80 μg protein) were suspended in 2.5 ml vesicle buffer (125 mM KCl, 5 mM MgCl2, 20 mM HEPES (pH 7.4), 1 mM DTT, 1 mM EDTA, 2 mM NaN3), with 6 μM AO (5 mM stock in H2 O) in a cuvet. […] After equilibration for 30 minutes at 25° C. 1 mM Tris-ATP was added to begin acidification (100 mM stock, titrated to pH 7.4 with 1 M Tris-base before use). Twenty minutes later, 2.5 μM of nigericin (10 mM stock in EtOH) was added to dissipate any ΔpH formation.
# Acridine orange (AO) was used as a probe for lumenal acidification. As vesicles acidify, they accumulate AO to self-quenching concentrations, and deplete the extra-vesicular free AO, resulting in a decrease in total fluorescence. Acidification was initiated by the addition of ATP to a purified microsomal fraction in the absence of cytosol (FIG. 1A, at t=300 sec). […] Nigericin, a K^+ /H^+ exchanger that rapidly dissipates pH gradients, was added at the end of each reaction (t=1500 seconds).
# [3] = Liposome chloride concentration (lucigenin); details: after addition of 50 mM KCl; tamoxifen 2, 4, 8 μM, valinomycin 1 μM
compound,measurement,setting,value
"CC/C(=C(/c1ccc(OCCN(C)C)cc1)c1cccc(O)c1)c1ccccc1 [Droloxifene, 3-hydroxytamoxifen]",binding affinity to the estrogen receptor relative to tamoxifen,estrogen receptor,10-60 fold
Cl.N [ammonium chloride],effect of addition on pHL without pre-existing pH gradient,"[1]; pHL 6.2 = external pH, tamoxifen 2 μM, 8 μM, NH4Cl 5 mM",alkalinization of the lumen
same,effect of addition to pre-acidified vacuoles,"yeast vacuoles; added at 250 sec, tamoxifen 2 μM, ammonium 1 mM",step alkalinization
same,concentration relative to tamoxifen for similar inhibition,yeast vacuoles; ammonium chloride 1 mM,1000 fold
same,inhibition of vacuole acidification,"yeast vacuoles; pre-equilibrated, tamoxifen 2 μM or 8 μM, ammonium chloride 1 mM",slightly inhibited
"CO/C1=C\C(C)=C\[C@@H](C)[C@@H](O)[C@@H](C)C/C(C)=C/C=C/[C@H](OC)[C@@H]([C@@H](C)[C@@H](O)[C@H](C)[C@@]2(O)C[C@@H](O)[C@H](C)[C@@H](C(C)C)O2)OC1=O [bafilomycin A1, Bafilomycin A1]",acidification blocked,"[2]; 10 nM (one tenth of 100 nM), pre-treatment, FIG. 1A",95%
same,rate of dissipation of pre-existing pH gradient,[2],much slower rate
CC[C@@]1([C@@H]2O[C@@H]([C@H]3O[C@@](O)(CO)[C@H](C)C[C@@H]3C)C[C@@H]2C)CC[C@H]([C@]2(C)CC[C@]3(C[C@H](O)[C@@H](C)[C@@H]([C@@H](C)[C@@H](OC)[C@H](C)C(=O)O)O3)O2)O1 [monensin],rate of dissipation of pre-existing pH gradient,[2],significantly faster than tamoxifen
CO[C@@H]1C[C@@H](C[C@H]2CC[C@H](C)[C@H]([C@@H](C)C(=O)O)O2)O[C@]2(O[C@](C)([C@H]3CC[C@@](C)([C@@H]4O[C@@H]([C@H]5O[C@@](O)(CO)[C@H](C)C[C@@H]5C)C[C@@H]4C)O3)C[C@H]2C)[C@@H]1C [nigericin],rate of dissipation of pre-existing pH gradient,[2],significantly faster than tamoxifen
CC(C)[C@@H]1NC(=O)[C@H](C)OC(=O)[C@@H](C(C)C)NC(=O)[C@@H](C(C)C)OC(=O)[C@H](C(C)C)NC(=O)[C@H](C)OC(=O)[C@@H](C(C)C)NC(=O)[C@@H](C(C)C)OC(=O)[C@H](C(C)C)NC(=O)[C@H](C)OC(=O)[C@@H](C(C)C)NC(=O)[C@@H](C(C)C)OC1=O [valinomycin],effect on pHL after shift of external pH,"[1]; pHL 6.2, external pH shifted to 7.3, tamoxifen 0.5 or 2 μM, NH4Cl 1 mM, FCCP 1 μM, valinomycin 1 μM",faster dissipation of the pH gradient than FCCP
same,"rate of pH gradient dissipation, alkaline lumen","[1]; pHL 8.1, external pH shifted to 6.9, tamoxifen 0.5-8 μM, NH4Cl 5 mM, FCCP 1 μM, valinomycin 1 μM",greater dissipation of pH gradient than FCCP
same,rate of chloride influx into liposomes,[3],increased the rate of chloride equilibration
